# Source: patent US20050014149A1, “Assay for inhibitors of translocases” (priority 2001, published 2005)
# Target: SV40 large T antigen (Simian virus 40, UniProt P03070)
# Experiment: Homogeneous helicase assay (streptavidin displacement from biotin-labelled oligonucleotide, biotin-4-fluorescein quenching)
# Type: biochemical
# Details: inhibitor added to the helicase assay; fluorescence ex 485 nm / em 535 nm; FIG. 4
# Description: The helicase substrate takes the form of an oligonucleotide of length appropriate to the helicase under test that is biotinylated at one end, appropriate to the directionality of the helicase under test. In this example, a single-strand 60-mer with the sequence […] TGCATGATG was labelled with biotin at the 5′-terminus (obtained from Eurogentec, Belgium) so that it could be used as a substrate for the helicase function of the SV40 large T antigen which is a 3′-5′ helicase.
# Equal volumes of streptavidin and biotin-labelled oligonucleotide dissolved in reaction buffer (see below) were mixed in such a way that there was at least a four-fold molar excess of oligonucleotide over streptavidin. This is to ensure the saturation of all biotin-binding sites on the streptavidin molecule (4 biotin-binding sites per molecule streptavidin). This mixture was incubated for at least 15 minutes before being used for the assay.
# An aliquot of the oligonucleotide/streptavidin complex (oligo/SA) was then mixed with SV40 large T antigen and biotin-4-fluorescein in a suitable buffer, in this case 50 mM Tris-HCl pH 7.5, containing 3 mM MgCl2, 5 mM dithiothreitol and 100 μg/ml bovine serum albumin and pipetted into 384-well microplates.
# The enzyme reaction was started by adding an appropriate amount of adenosine triphosphate and incubating the plate at 37° C. […]
# Chain of SV40 large T antigen (P03070 whole entry): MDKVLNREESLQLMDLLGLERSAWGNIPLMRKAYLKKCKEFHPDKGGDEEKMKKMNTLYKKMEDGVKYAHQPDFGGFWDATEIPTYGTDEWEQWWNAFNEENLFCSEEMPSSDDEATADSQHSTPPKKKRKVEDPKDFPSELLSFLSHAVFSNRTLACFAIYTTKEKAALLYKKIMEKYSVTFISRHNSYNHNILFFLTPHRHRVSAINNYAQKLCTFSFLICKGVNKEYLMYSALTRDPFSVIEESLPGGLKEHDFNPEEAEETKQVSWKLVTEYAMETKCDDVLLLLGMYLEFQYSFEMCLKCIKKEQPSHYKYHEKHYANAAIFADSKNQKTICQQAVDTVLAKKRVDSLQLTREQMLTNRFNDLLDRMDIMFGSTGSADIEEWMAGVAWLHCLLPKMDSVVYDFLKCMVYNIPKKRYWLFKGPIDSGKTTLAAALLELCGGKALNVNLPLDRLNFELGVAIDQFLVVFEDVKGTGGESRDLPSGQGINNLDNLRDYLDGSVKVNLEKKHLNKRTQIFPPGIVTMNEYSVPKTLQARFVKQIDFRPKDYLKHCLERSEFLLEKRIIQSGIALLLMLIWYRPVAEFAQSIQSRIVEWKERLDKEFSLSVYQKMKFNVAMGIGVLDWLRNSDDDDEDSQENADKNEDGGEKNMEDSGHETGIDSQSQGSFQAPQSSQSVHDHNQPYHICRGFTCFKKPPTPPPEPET
structure (smiles),measurement,value
Cn1cc(NC(=O)c2cc(NC(=O)c3cc(NC=O)cn3C)cn2C)cc1C(=O)NCCC(=N)N [Distamycin A],helicase activity (displacement of the streptavidin from the biotin-labelled substrate),dose-dependently decrease helicase activity
